# Laboratory results reported in US20100063156A1, “ANANDAMIDE” (priority 2006, published 2010).
# What was measured:
# [1] = tested on: Sprague-Dawley rats; experiment: Food intake in rats after intragastric infusion of anandamide; assay type: in vivo, rat; conditions: for 9-h cumulative food intake: intragastric infusion in sunflower oil, rats food-deprived 15 h, control 27.1 g
# Description: An experiment was conducted to measure the effect of different levels of anandamide intake on food intake in rats. Thirteen adult male Sprague-Dawley rats (Charles River, Germany) were surgically equipped with a chronic gastric cannula. Animals were individually housed in plastic cages (42×22×36 cm) with stainless steel grid floors in a temperature-controlled (22±2° C.) room. The 12:12-h light-dark cycle was inversed (lights off 09:00 h).
# Rats had free access to water and restricted access to ground extruded feed (No. 3436, Provimi Kliba-nafag, Kaiseraugst, Switzerland). To prevent spoilage of food, it was placed in cups at the end of a tunnel (5×10×30 cm) that protruded from the side of the cage, with its bottom 5 cm above the cage floor. Food cups were mounted on electronic balances (Mettler PM 3000, Switzerland) that were interfaced with a computer (Olivetti M 300, Germany). Weights of the food cups were recorded the every 30 s, enabling continuous measurement of spontaneous feeding patterns. Anandamide (98% purity, dissolved in ethanol) was obtained from Cayman Chemical Company, Michigan, USA). It was stored deep-frozen, until the experiment. Than the proper quantity was mixed into sunflower oil.
# Before starting the experimental period, rats (394±7 g) were adapted to the restricted food access. One day prior to the test, they were also adapted to infusion of sunflower oil. The experimental period lasted five consecutive days. During the experiment, rats were deprived from food each day for 15 h (18.00-9.00 h). […] Each of these doses was given to three rats. One rat was excluded from the experiment after 2 days, and a spare animal was included.
# [2] = tested on: test animals; conditions: introduced into the blood stream; neither decreased nor increased food intake; cited from earlier work
# [3] = tested on: rats; conditions: anandamide introduced by injection (Williams & Kirkham 2002); cited from earlier work
compound,measurement,setting,value
"CCCCC/C=C\C/C=C\C/C=C\C/C=C\CCCC(=O)NCCO [anandamide, arachidonyl-ethanolamide]",9-h cumulative food intake,[1]; 2.5 mg anandamide/d,25.8 g
same,food intake compared to the control,"[1]; 2.5 mg/d, intragastric",did not affect food intake
same,9-h cumulative food intake,[1]; 5.0 mg anandamide/d,27.6 g
same,food intake calculated as a mean over the 9-h period,[1]; 5.0 mg versus 0 or 2.5 mg anandamide,significantly lower
same,food intake compared to the control,"[1]; 5.0 mg, 3 through 6 hours after infusion, P<0.001, difference disappeared later",reduced food intake significantly
same,"9-h cumulative food intake, significance versus other treatments","[1]; 7.5 mg anandamide/d versus 0, 2.5 and 5.0 mg",significantly different from the other treatments
same,9-h cumulative food intake,[1]; 7.5 mg anandamide/d,23.0 g
same,food intake calculated as a mean over the 9-h period,[1]; 7.5 mg versus 0 or 2.5 mg anandamide,significantly lower
same,food intake compared to the control,"[1]; 7.5 mg/d, until 9 h post-infusion",lower food intake persisted until 9 h post-infusion
same,voluntary food intake,[2],ineffective
same,appetite / feeding effect,[3],Appetite stimulating effects were found
